In patent publication US8609719B2, “Propargylated aminoindans, processes for preparation, and uses thereof” (priority 2006, dated 2013):
Counter-ions that a name gives are not always drawn. Like-named read-outs stand apart in the source and are kept apart here.

Experiments:
MAO-B = molecular target: T1, MAO-B (Rattus norvegicus, UniProt P19643); assay: MAO-B inhibition in rat organs after chronic P.O. administration; assay type: in vivo; conditions: po, 7 days, 2 hours after last dose; for inhibition at 37.5 µmol/kg: 37.5 μmol/kg P.O. daily; for inhibition at 75 µmol/kg: 75 μmol/kg P.O. daily; for inhibition at 150 µmol/kg: 150 μmol/kg P.O. daily
T1 construct: from tissue; host or cells: brain, liver and intestine (duodenum) of dosed rats
T1 sequence (P19643 1-520): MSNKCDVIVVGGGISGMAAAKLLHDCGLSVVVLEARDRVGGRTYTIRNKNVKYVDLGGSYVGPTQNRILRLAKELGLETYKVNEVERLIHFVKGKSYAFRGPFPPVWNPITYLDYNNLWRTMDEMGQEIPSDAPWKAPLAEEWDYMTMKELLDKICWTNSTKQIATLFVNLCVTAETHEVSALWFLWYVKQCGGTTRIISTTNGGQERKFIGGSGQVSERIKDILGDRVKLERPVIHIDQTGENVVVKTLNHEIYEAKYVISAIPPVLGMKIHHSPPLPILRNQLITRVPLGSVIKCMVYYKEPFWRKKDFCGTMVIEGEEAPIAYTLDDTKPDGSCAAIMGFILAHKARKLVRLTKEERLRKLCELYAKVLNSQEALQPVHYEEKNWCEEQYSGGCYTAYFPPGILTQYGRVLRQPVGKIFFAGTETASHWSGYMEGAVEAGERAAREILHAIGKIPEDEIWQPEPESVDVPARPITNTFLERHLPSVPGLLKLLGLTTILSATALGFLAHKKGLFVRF
Protocol: (§1) 30 rats were separated randomly into 5 testing groups of 6 rats each. Group 1 was the control group to which no drug was administered. Ethyl-hydroxymethyl-carbamic acid 3-R-(prop-2-ynylamino)-indan-5-yl ester fumarate (2:1) was administered to groups 2, 3, 4 in dosages of 150, 75, and 37.5 μmol/kg respectively, daily, perorally (“P.O.”) for seven consecutive days. Water was used as a vehicle.
(§2) Rats were sacrificed, out of sight of the other rats, 2 hours after the last administration. Brains were removed into Petri dishes on ice, the cerebellums were […], and the brains cut into halves for analysis. Livers and intestines were removed for MAO determination. Organs were homogenated for enzyme inhibition analysis.
(§3) The MAO inhibition after administration of ethyl-hydroxymethyl-carbamic acid 3-R-(prop-2-ynylamino)-indan-5-yl ester fumarate (2:1) in various organs is listed in Table 4 calculated in percent relative to the control group.

MAO-A = molecular target: T2, MAO-A (Rattus norvegicus, UniProt P21396); assay: MAO-A inhibition in rat organs after chronic P.O. administration; assay type: in vivo; conditions: po, 7 days, 2 hours after last dose; for inhibition at 37.5 µmol/kg: 37.5 μmol/kg P.O. daily; for inhibition at 75 µmol/kg: 75 μmol/kg P.O. daily; for inhibition at 150 µmol/kg: 150 μmol/kg P.O. daily
T2 construct: from tissue; host or cells: brain, liver and intestine (duodenum) of dosed rats
T2 sequence (P21396 1-526): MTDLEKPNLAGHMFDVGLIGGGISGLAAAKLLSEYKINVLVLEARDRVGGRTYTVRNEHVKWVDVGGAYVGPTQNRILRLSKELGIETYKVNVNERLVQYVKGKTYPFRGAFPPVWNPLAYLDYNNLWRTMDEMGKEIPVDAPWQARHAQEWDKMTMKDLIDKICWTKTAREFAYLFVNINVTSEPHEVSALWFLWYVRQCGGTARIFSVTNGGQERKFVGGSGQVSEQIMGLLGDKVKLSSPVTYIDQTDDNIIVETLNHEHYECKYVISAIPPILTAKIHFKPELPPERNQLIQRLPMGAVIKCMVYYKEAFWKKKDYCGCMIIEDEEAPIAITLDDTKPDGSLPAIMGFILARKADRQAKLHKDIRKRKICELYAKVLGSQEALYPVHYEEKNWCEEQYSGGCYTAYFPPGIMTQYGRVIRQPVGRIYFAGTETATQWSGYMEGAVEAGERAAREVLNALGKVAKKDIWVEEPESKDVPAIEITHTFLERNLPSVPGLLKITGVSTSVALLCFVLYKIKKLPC
Protocol: as §1, §2, §3

[1] = read-out: Brain MAO-B inhibition relative to control
[2] = read-out: Duodenum MAO-B inhibition relative to control
[3] = read-out: Liver MAO-B inhibition relative to control
[4] = read-out: Brain MAO-A inhibition relative to control
[5] = read-out: Duodenum MAO-A inhibition relative to control
[6] = read-out: Liver MAO-A inhibition relative to control

C#CCN[C@@H]1CCc2ccc(OC(=O)N(CC)CO)cc21 [R-HCPAI, Ethyl-hydroxymethyl-carbamic acid 3-R-(prop-2-ynylamino)-indan-5-yl ester fumarate (2:1)]
inhibition at 37.5 µmol/kg (MAO-B; [1]): 17%
inhibition at 37.5 µmol/kg (MAO-B; [2]): 7%
inhibition at 37.5 µmol/kg (MAO-B; [3]): 15%
inhibition at 75 µmol/kg (MAO-B; [1]): 62%
inhibition at 75 µmol/kg (MAO-B; [2]): 31%
inhibition at 75 µmol/kg (MAO-B; [3]): 18%
inhibition at 150 µmol/kg (MAO-B; [1]): 83%
inhibition at 150 µmol/kg (MAO-B; [2]): 35%
inhibition at 150 µmol/kg (MAO-B; [3]): 34%
inhibition at 37.5 µmol/kg (MAO-A; [4]): 8%
inhibition at 37.5 µmol/kg (MAO-A; [5]): -25%
inhibition at 37.5 µmol/kg (MAO-A; [6]): 3%
inhibition at 75 µmol/kg (MAO-A; [4]): 41%
inhibition at 75 µmol/kg (MAO-A; [5]): 18%
inhibition at 75 µmol/kg (MAO-A; [6]): 9%
inhibition at 150 µmol/kg (MAO-A; [4]): 72%
inhibition at 150 µmol/kg (MAO-A; [5]): 21%
inhibition at 150 µmol/kg (MAO-A; [6]): 16%
